Laboratory results taken from ChEMBL document CHEMBL3045356, “Synthesis and biological evaluation of a novel class as antileishmanial agent” (Med Chem Res, 2012).
Activity calls are given as the source filed them. The calls are words filed in the database; no cut-off is given here.

Assays:
Leishmania major [1] = assay: Antileishmanial activity against promastigote stage of Leishmania major MHOM/IL/81/FEBNI assessed as parasite motility at 10 umol measured every 10 min for 1 hr by light microscopic analysis; format: functional, organism-based
Leishmania major [2] = assay: Antileishmanial activity against promastigote stage of Leishmania major MHOM/IL/81/FEBNI assessed as cell viability at 10 umol measured every day for 5 days by light microscopic analysis; format: functional, organism-based
Leishmania major [3] = assay: Antileishmanial activity against promastigote stage of Leishmania major MHOM/IL/81/FEBNI infected Swiss albino mouse assessed as inhibition of autoamputation of inoculated footpad at 20 umol administered 21 days post infection measured after 5 weeks relative to untreated mouse; format: functional, organism-based
Leishmania major [4] = assay: Antileishmanial activity against promastigote stage of Leishmania major MHOM/IL/81/FEBNI infected Swiss albino mouse assessed as inhibition of gangrene in inoculated footpad at 20 umol administered 21 days post infection measured after 5 weeks relative to untreated mouse; format: functional, organism-based
Leishmania major [5] = assay: Antileishmanial activity against promastigote stage of Leishmania major MHOM/IL/81/FEBNI infected Swiss albino mouse assessed as decrease in parasite number in cutaneous lesion at 20 umol administered 21 days post infection measured after 5 weeks by Giemsa staining; format: functional, organism-based
Leishmania major [6] = assay: Antileishmanial activity against promastigote stage of Leishmania major MHOM/IL/81/FEBNI infected Swiss albino mouse assessed as decrease in cutaneous lesion progression at 20 umol administered 21 days post infection measured after 5 weeks relative to untreated mouse; format: functional, organism-based
Leishmania major [7] = assay: Antileishmanial activity against promastigote stage of Leishmania major MHOM/IL/81/FEBNI infected Swiss albino mouse assessed as inhibition of lesion development in inoculated footpad at 20 umol administered 21 days post infection measured after 5 weeks relative to untreated mouse; format: functional, organism-based
Leishmania major [8] = assay: Antileishmanial activity against promastigote stage of Leishmania major MHOM/IL/81/FEBNI infected Swiss albino mouse assessed as decrease in parasite-induced inflammatory reaction in cutaneous lesion at 20 umol administered 21 days post infection measured after 5 weeks by Giemsa staining; format: functional, organism-based
Leishmania major [9] = assay: Antileishmanial activity against promastigote stage of Leishmania major MHOM/IL/81/FEBNI infected Swiss albino mouse assessed as decrease in swelling and redness of inoculated footpad at 20 umol administered 21 days post infection measured after 5 weeks; format: functional, organism-based
Mus musculus [10] = assay: Toxicity in Mus musculus Swiss albino (mouse) infected with promastigote stage of Leishmania major MHOM/IL/81/FEBNI assessed as severe irritation of epidermis at 20 umol administered 21 days post infection measured after 5 weeks; format: organism-based; details: in vivo, 840 h
Mus musculus [11] = assay: Toxicity in Mus musculus Swiss albino (mouse) infected with promastigote stage of Leishmania major MHOM/IL/81/FEBNI assessed as vascular thrombosis at 20 umol administered 21 days post infection measured after 5 weeks; format: organism-based; details: in vivo, 840 h
Mus musculus [12] = assay: Toxicity in Mus musculus Swiss albino (mouse) infected with promastigote stage of Leishmania major MHOM/IL/81/FEBNI assessed as deposition of haemosidrin in macrophages at 20 umol administered 21 days post infection measured after 5 weeks; format: organism-based; details: in vivo, 840 h

SMILES	Activity (Leishmania major [1])	Activity (Leishmania major [2])	inhibition of footpad autoamputation (active/not active) (Leishmania major [3])	inhibition (Leishmania major [4])	Activity (Leishmania major [5])	Activity (Leishmania major [6])	inhibition (Leishmania major [7])	Activity (Leishmania major [8])	Activity (Leishmania major [9])	Activity (Mus musculus [10])	Activity (Mus musculus [11])	Activity (Mus musculus [12])
COc1cc(C2NC(=S)NC(C)=C2C(=O)NNC(=O)c2ccccc2O)cc(OC)c1OC (stereo unspecified)	Active	Active	inactive	inactive	inactive	Active	inactive	–	–	–	–	–
CC1=C(C(=O)NNC(=O)c2ccccc2O)C(c2ccc(N(C)C)cc2)NC(=S)N1 (stereo unspecified)	Active	Active	Active	–	inactive	Active	–	–	–	–	–	–
CC1=C(C(=O)NNC(=O)c2ccccc2O)C(c2cccc([N+](=O)[O-])c2)NC(=O)N1 (stereo unspecified)	Active	Active	–	–	Active	–	–	Active	Active	Toxic	–	–
CC1=C(C(=O)NNC(=O)c2ccccc2O)C(c2ccc(N(C)C)cc2)NC(=O)N1 (stereo unspecified)	Active	Active	inactive	inactive	inactive	Active	inactive	–	–	–	–	–
CC1=C(C(=O)N(CCO)CCO)C(c2cccc([N+](=O)[O-])c2)NC(=S)N1 (stereo unspecified)	Active	Active	Active	–	inactive	Active	–	–	–	–	–	–
C/C=C/C(=O)NNC(=O)C1=C(C)NC(=S)NC1c1cccc([N+](=O)[O-])c1 (stereo unspecified)	Active	Active	–	–	Active	–	–	Active	Active	Non-toxic	–	–
CC1=C(C(=O)N(CCCl)CCCl)C(c2cccc([N+](=O)[O-])c2)NC(=S)N1 (stereo unspecified)	Active	Active	–	–	Active	–	–	Active	Active	Non-toxic	–	–
CC(=O)Nc1ccc(NC(=O)C2=C(C)NC(=O)NC2c2ccc(N(C)C)cc2)cc1 (stereo unspecified)	Active	Active	Active	–	inactive	Active	–	–	–	Toxic	Toxic	Toxic
CC1=C(C(=O)NNC(=O)c2ccccc2O)C(c2cccc([N+](=O)[O-])c2)NC(=S)N1 (stereo unspecified)	Active	Active	–	–	Active	–	–	Active	Active	Toxic	–	–
